Data as given in patent US20240366543A1, “METHODS OF TREATING METHYLMALONIC ACIDEMIA AND PROPIONIC ACIDEMIA” (HemoShear Therapeutics, Inc., priority 2021, published 2024).
Several values for one entry are separate records, joined by “and”; a condition that tells them apart may be missing. Equal values may be shown once. Read-outs that look alike come from different tables or passages of the source.

Key:
[1] = test system: primary hepatocytes of propionic acidemia patients; assay: Propionyl-CoA from 13C-labelled sources in PA primary hepatocytes (Example 1); type: cell-based, human; settings: 0-100 μM
Description: Primary hepatocytes isolated from livers of propionic acidemia patients are treated with increasing doses of Compound 5 (0, 0.1, 0.3, 1, 3, 10, 30, 100 μM) for 30 minutes. After 30 minutes the cells are challenged with the different sources of P-CoA, which may include 13C-KIVA (1 mM), 13C-isoleucine (3 mM), 13C-threonine (5 mM), 13C-methionine (5 mM), 13C-heptanoate (100 μM), or 13C-propionate (5 mM) for 60 minutes. At the end of the challenge period, media is removed and the cells are lysed with 70% MeCN and 0.1% TFA containing 100 μM of ethymalonyl-CoA as an internal standard and harvested. Cell lysates are processed for HTMS/MS analysis.

MMA pHeps = assay: Static cell culture, MMA pHeps, low/high propiogenic media; type: cell-based, human; settings: for Percent change (30 μM), 12C-Acetyl-CoA / Percent change (30 μM), CoASH: static culture 1.5 h
Description: (§1) Unlike the HemoShear Technology, this assay is carried out without constant perfusion, utilizing cell culture media that was customized to mimic plasma levels of propiogenic sources (amino acids and ketoacids) in PA and MMA patients during periods of relative metabolic stability (low propiogenic media) and acute metabolic crisis (high propiogenic media). PA and MMA pHeps, in static cell culture, were treated with Compound 5 (concentrations ranging from 0.1 μM to 100 μM) for 30 minutes in low propiogenic media, followed by either a continuation of low propiogenic media or a switch to the high propiogenic media for 1 hour. The media used during the 1-hour incubation contained propiogenic SIL amino acids and ketoacids which are metabolized into labeled P-CoA and M-CoA in the cells. The SIL amino acids and ketoacids were a mix of ^13C and MeD8 labelling, but their catabolism produced a SIL P-CoA (denoted as ^13C—P-CoA for simplicity) with the same mass, independent of the type of SIL (also true for ^13C-M-CoA).

[2] = test system: primary hepatocytes of methylmalonic acidemia patients; assay: Propionyl-CoA and methylmalonyl-CoA from 13C-labelled sources in MMA primary hepatocytes (Example 2); type: cell-based, human
Description: Primary hepatocytes isolated from livers of methylmalonic acidemia patients are treated with increasing doses of Compound 5 (0, 0.1, 0.3, 1, 3, 10, 30, 100 µM) for 30 min. After 30 minutes the cells are challenged with the different sources of P-CoA, which may include 13C-KIVA (1 mM), ^13C-isoleucine (3 mM), ^13C-threonine (5 mM), ^13C-methionine (5 mM), ^13C-heptanoate (100 μM), or ^13C-propionate (5 mM) for 60 minutes. At the end of the challenge period, media is removed and the cells are lysed with 70% MeCN and 0.1% TFA containing 100 μM of ethymalonyl-CoA as an internal standard and harvested. Cell lysates are processed for HTMS/MS analysis.

PA pHeps = assay: Static cell culture, PA pHeps, low/high propiogenic media; type: cell-based, human; settings: for % change at 30 μM, 13C-Propionyl-CoA (13C-P-CoA): static cell culture; for Percent change (30 μM), 12C-Acetyl-CoA / Percent change (30 μM), CoASH: static culture 1.5 h
Description: as §1

[3] = test system: primary hepatocytes (pHeps) from MMA donors; assay: HemoShear REVEAL-Tx Technology, MMA pHeps; type: cell-based, human
[4] = test system: primary hepatocyte model of isovaleric acidemia; assay: Isovaleryl-CoA from 13C-leucine in primary hepatocyte model of isovaleric acidemia (Example 4); type: cell-based; settings: primary hepatocytes with/without isovaleryl-CoA dehydrogenase inhibitor
Description: Primary hepatocytes are treated with increasing doses of Compound 5 (0, 0.1, 0.3, 1, 3, 10, 30, 100 μM) with and without an inhibitor for isovaleryl-CoA dehydrogenase for 30 min. After 30 min the cells are challenged with 13C-leucine. At the end of the challenge period, media is removed and the cells are lysed with 70% MeCN and 0.1% TFA containing 100 μM of ethymalonyl-CoA as an internal standard and harvested. Cell lysates are processed for HTMS/MS analysis.

[5] = Phase 2 study preliminary plasma pharmacokinetics in PA/MMA subjects; type: in vivo, human; settings: for C24 / concentration at 24 h: 24 hours post-dose; for C24: C24projected: ratio observed to projected; for AUC(0-t): read-out: AUC0-24 h; for concentration at 24 h: read-out: C24
Description: Part A is the dose escalation phase to assess the initial safety and to confirm the pharmacologic activity of Compound 5 in subjects with PA and MMA. Screening for eligibility took place within 28 days of enrollment. All subjects were initially evaluated during a 4-week run-in period followed by within-subject dose escalation of 3 doses (1, 3, and 10 mg/kg QD of sodium 2,2-dimethylbutanoate); dose escalation interval of 4 weeks) to check for improvement in disease-related biomarkers.
Plasma will be analyzed by liquid chromatography with tandem mass spectrometry (LC-MS/MS) with a lower limit of quantitation of 0.100 μg/mL. Samples collected for analyses of Compound 5 (plasma/serum/whole blood)] concentration may also be used to evaluate safety or efficacy aspects related to concerns arising during or after the study.
Preliminary pharmacokinetics (PK) data from the first two subjects of Study described in Examples 7-8 was evaluated at 1 mg/kg, 3 mg/kg and 10 mg/kg of Compound 5 dosed once daily (QD).

[6] = static cell culture, high propiogenic media
[7] = static cell culture, low propiogenic media
[8] = 1 mg/kg QD, single dose, individual subjects 010-1001, 010-1002, preliminary
[9] = 1 mg/kg QD, steady-state, individual subjects
[10] = 3 mg/kg QD, steady-state, individual subjects
[11] = 10 mg/kg QD, steady-state, individual subjects
[12] = human, plasma, oral, 1 mg/kg, 1 mg/kg QD, steady-state, individual subjects
[13] = human, plasma, oral, 10 mg/kg, 10 mg/kg QD, steady-state, individual subjects

CCC(C)(C)C(=O)O [Compound 5, 2,2-dimethylbutyric acid]
intracellular propionyl-CoA from all sources investigated [1]: dose-dependent reduction
% change at 30 μM, 13C-Methymalonic acid (MMA pHeps; [6]): −91 ± 4%
% change at 30 μM, 13C-Propionyl-CoA (13C-P-CoA) (MMA pHeps; [6]): −75.9±7.3%
% change at 30 μM, 12C-Methylmalonyl-CoA (13C-M-CoA) (MMA pHeps; [7]): −76.5±13.2%
% change at 30 μM, 13C-Methymalonic acid (MMA pHeps; [7]): −83.2 ± 5^ %
% change at 30 μM, 13C-Propionyl-CoA (13C-P-CoA) (MMA pHeps; [7]): −77.6±9.8%
Percent change (30 μM), 12C-Acetyl-CoA (MMA pHeps; high propiogenic media): −14.6 ± 12.6%
Percent change (30 μM), CoASH (MMA pHeps; high propiogenic media): −28.7 ± 7.3%
Percent change (30 μM), 12C-Acetyl-CoA (MMA pHeps; low propiogenic media): −35.5 ± 18.1%
Percent change (30 μM), CoASH (MMA pHeps; low propiogenic media): −47.7 ± 13.4%
intracellular propionyl-CoA and methylmalonyl-CoA from all sources investigated [2]: dose-dependent reduction
% change at 30 μM, 13C-Propionyl-CoA (13C-P-CoA) (PA pHeps; high propiogenic media): −85.3±9.1%
% change at 30 μM, 13C-Propionyl-CoA (13C-P-CoA) (PA pHeps; low propiogenic media): −76.4±12.6%
Percent change (30 μM), 12C-Acetyl-CoA (PA pHeps; high propiogenic media): −27 ± 3.4%
Percent change (30 μM), CoASH (PA pHeps; high propiogenic media): −48 ± 14.3%
Percent change (30 μM), 12C-Acetyl-CoA (PA pHeps; low propiogenic media): −36.6 ± 13.5%
Percent change (30 μM), CoASH (PA pHeps; low propiogenic media): −55.2 ± 7.1%
average reduction in the C3/C2 ratio (log 2 fold change) ([3]; 30 μM): −2.2±0.2 log 2 fold change
% change at 30 μM, 2-Methylcitric acid (2MC) ([3]; average ± SD): −66.7±14.9%
% change at 30 μM, 12C-Acetyl-Carnitine (C2) ([3]; average ± SD): 44.6 ± 26.8%
% change at 30 μM, 12C-Methylmalonyl-CoA (M-CoA) ([3]; average ± SD): −55±6.6%
% change at 30 μM, 12C-Propionyl-Carnitine (C3) ([3]; average ± SD): −65.9±10.7%
% change at 30 μM, 12C-Propionyl-CoA (P-CoA) ([3]; average ± SD): −74.2±11.6%
Percent change at 30 μM, 12C-Acetyl-CoA ([3]; exposed 6 days): 13.5 ± 24.9%
Percent change at 30 μM, CoASH ([3]; exposed 6 days): −22.3 ± 22.3%
intracellular isovaleryl-CoA derived from 13C-leucine [4]: dose-dependent reduction
AUC0-24 h [5, 8]: 22800 ng·h/mL
Cmax [5, 8]: 1740 ng/mL
C24 [5, 9]: 0.765 µg/mL
AUC0-24 h [5, 9]: 36500 ng·h/mL
Cmax ([5]; 1 mg/kg QD, steady-state, individual subjects 010-1001, 010-1002): 2930 ng/mL
C24: C24projected [5, 9]: 1.27 and 0.829
C24 [5, 10]: 3.34 µg/mL and 1.01 µg/mL
AUC0-24 h [5, 10]: 115000 ng·h/mL
Cmax ([5]; 3 mg/kg QD, steady-state, individual subjects 010-1001, 010-1002): 11400 ng/mL
C24: C24projected [5, 10]: 1.21 and 0.365
C24 [5, 11]: 13.1 µg/mL
AUC0-24 h [5, 11]: 678000 ng·h/mL
Cmax ([5]; 10 mg/kg QD, steady-state, individual subjects 010-1001, 010-1002): 50600 ng/mL
C24: C24projected [5, 11]: 0.985 and 1.42
AUC(0-t) ([5]; human, plasma, oral, 1 mg/kg, 1 mg/kg QD, single dose, individual subjects 010-1001, 010-1002, preliminary): 30800 ng·h/mL
Cmax ([5]; human, plasma, oral, 1 mg/kg, 1 mg/kg QD, single dose, individual subjects 010-1001, 010-1002, preliminary, read-out: Cmax): 2620 ng/mL
concentration at 24 h [5, 12]: 1170 ng/mL
Cmax ([5]; human, plasma, oral, 1 mg/kg, 1 mg/kg QD, steady-state, individual subjects 010-1001, 010-1002, read-out: Cmax): 4410 ng/mL
AUC(0-t) [5, 12]: 56500 ng·h/mL
Cmax ([5]; human, plasma, oral, 3 mg/kg, 3 mg/kg QD, steady-state, individual subjects 010-1001, 010-1002, read-out: Cmax): 15900 ng/mL
AUC(0-t) ([5]; human, plasma, oral, 3 mg/kg, 3 mg/kg QD, steady-state, individual subjects): 189000 ng·h/mL
concentration at 24 h [5, 13]: 9090 ng/mL
Cmax ([5]; human, plasma, oral, 10 mg/kg, 10 mg/kg QD, steady-state, individual subjects 010-1001, 010-1002, read-out: Cmax): 50700 ng/mL
AUC(0-t) [5, 13]: 557000 ng·h/mL
